{"source": "paper PMC5458179", "about": "“Oxidative DNA double strand breaks and autophagy in the antitumor effect of sterically hindered platinum(II) complexes in NSCLCs” (Oncotarget, 2017)", "type_in_all_cases": "cell-based, human", "key": {"MCF-7": {"system": "MCF-7", "assay": "MTT cytotoxicity assay", "settings": "exposed for 48 h", "protocol": "Human cancer cell lines HepG2, SGC-7901, HCT-116, A549, NCI-H1299 and MCF-7 as well as normal liver cell line L02 were purchased from the Cell Bank of Shanghai Institute of Cell Biology. Among them, MCF-7, HepG2 cells were cultured at 37 °C in 5% CO2 with DMEM supplemented with 10% fetal bovine serum (FBS) (Hyclone, Lifescience, USA) and 1% penicillin/streptomycin (Beyotime, Nantong, China), while HCT-116, SGC-7901, A549, NCI-H1299 and L02 cells were cultured at 37 °C in 5% CO2 with RPMI-1640 supplemented with 10% FBS and 1% penicillin/streptomycin. Cells were passed every 2 days and restarted from frozen stocks upon reaching pass number 20.\nIn vitro cytotoxicity of the platinum compounds against human hepatocellular carcinoma (HepG-2), gastric carcinoma (SGC-7901), non-small-cell lung cancer (A549), and colorectal cancer (HCT-116) cell lines were measured by the MTT assays. Briefly, the cells were seeded in 96-well cultured plates at a density of 5000 cells/well. After overnight incubation (16 h), the cells were treated with the platinum complexes. […] The cell viability was evaluated by measurement of the absorbance at 490 nm, using an Absorbance Reader (BioRad). […] The reading values were converted to the percentage of control (% cell survival). Cytotoxic effects were expressed as IC50 values."}, "LC3-II": {"system": "LC3-II", "assay": "Western blot of LC3-II", "protocol": "(§1) The role of complex 3-induced autophagy in cell death was further analyzed (Figure 6). When A549 cancer cells were treated with complex 3 of 10 μM, the protein expression of LC3-II was increased (Figure 6A). […] Treatment with complex 3 for 24 h caused a 4.5-folds increase in cells undergoing autophagy (Figure 6C). […] Moreover, Bax and Bcl-2 expressions were measured by western blot analysis of whole cell lysates.\n(§2) To investigate the role of ROS in complex 3-induced cell death, the level of intracellular H2O2 was measured. […] Exposure of A549 cells to NAC reduced levels of LC3-II from 2.3- to 1.5-folds (Figure 8B). […] In parallel, the complex 3-induced increase ratio of Bax/Bcl-2 was suppressed by NAC (Figure 8E).\nLysates were centrifuged at 12,000 g for 0.5 h at 4°C. The concentrations of total proteins were measured using the BCA assay method with Varioskan spectrofluorometer and spectrophotometer (Thermo, Waltham, MA) at 562 nm. Protein (20–100 μg) prepared from the indicated cells was loaded per lane and electrophoresed in 8% or 10% sodium dodecyl sulfate polyacrylamide gel electrophoresis (SDS-PAGE), and then transferred onto polyvinylidene difluoride (PVDF) Immobilon-P membrane (Bio-Rad, USA) using a transblot apparatus (Bio-Rad, USA). The membranes were blocked with 5% (w/v) non-fat milk at 0.5 h at 37°C, followed by overnight incubation at 4°C with primary antibodies diluted in PBST. After washing with PBST, the membranes were incubated for 1 h with an IRDye´800 conjugated secondary antibody diluted 1:20000 in PBST, and the labeled proteins were detected with an Odyssey Scanning System (Li-COR., Lincoln, Nebraska, USA)."}, "A549 cells [1]": {"system": "A549 cells", "assay": "Quantification of apoptotic cells (annexin V/PI flow cytometry)", "protocol": "as §1, §2\nThe mode of cell death was analyzed by flow cytometry with annexin V/propidium iodide (PI) double-staining to detect membrane events according to a previous study. After individual treatments, whole cells were collected in 4-(2-hydroxyethyl)-1-piperazineethanesulfonic acid (HEPES) buffer containing 10 mM HEPES (pH 7.4), 140 mM NaCl, and 2.5 mM CaCl2. Cells were subsequently stained with annexin V (2.5 μg/ml) and PI (2 ng/ml) for 20 min, followed by analysis by flow cytometry (Beckman Coulter). Cystograms of the four quadrants in the figure were used to distinguish normal (annexin V^−/PI^−), early apoptotic (annexin V^+/PI^−), late apoptotic(annexin V^+/PI^+), and necrotic cells (annexin V^−/PI^+). The sum of early apoptosis and late apoptosis is presented as total apoptosis."}, "A549 cells [2]": {"system": "A549 cells", "assay": "Autophagy by acridine orange flow cytometry (AVOs)", "protocol": "as §1, §2\nFlow cytometry with acridine orange staining as described in a previous study was used to detect and quantify the AVOs, one of the characteristicsof autophagy. At the end of individual experiments, A549 cells were collected in phenol red-free RPMI 1640 medium. Green (FL-1) and red (FL-3) fluorescences of acridine orange were measured using a flow cytometer and CellQuest software (Becton Dickinson, San Jose, CA). The sum of the upper-left and upper-right quadrants of the cytogram was used to estimate the percentage of cells undergoing autophagy."}, "caspase-3": {"system": "caspase-3", "assay": "Caspase-3 activation analysis", "settings": "A549 and NCI-H1299, 10 μM, 24 h", "protocol": "For the quantification of activation of caspase-3 in cancer cells, 5 × 10^5 cancer cells were seeded in a 60 mm dish and allowed to adhere for 1 day. […] As a reference control, the cells were only incubated with fresh media at 37°C. Then, the cells were washed with PBS to eliminate the remaining drugs and harvested using trypsin-EDTA. All the groups of cells were collected into microtubes following incubation with […] media containing […] of FITC-DEVD-FMK (Caspase 3(active) FITC Staining Kit (ab65613)) for 1 h at 37°C under 5% CO2. Subsequently, centrifugation of the cells was performed to collect cell pellets and washed 2 times with washing buffer. Each group of cells was resuspended with […] of the washing buffer and transferred […] per well in a microtiter plate reader. The quantification of caspase-3 was evaluated as Relative Fluorescence Unit(RFU) using Fluorophotometer (Max Gemini EM, SoftMax® Pro 5, Molecular Devices Corp., Sunnyvale, CA) at an emission wavelength of 535 nm after excitation at 485 nm. The statistical significance was evaluated with one-way ANOVA test using Graph Pad Prism 4 software."}, "[3]": {"settings": "A549, 10 μM complex 18 h, without NAC"}, "[4]": {"settings": "A549, 5 mM NAC 2 h pretreatment then 10 μM complex 18 h"}}}
{"smiles": "CC(C)C[NH+]1[C@@H]2CCCC[C@H]2[NH+](CC(C)C)[Pt-2]12[O]C(=O)CC(=O)[O]2", "note": "(stereo partly shown) [Complex 3]", "values": [{"measurement": "IC50", "setting": "MCF-7", "value": "32.5 ± 2.9", "unit": "µM"}, {"measurement": "levels of LC3-II", "setting": "LC3-II; [3]", "value": 2.3, "unit": "folds"}, {"measurement": "level of LC3-II", "setting": "LC3-II; A549, 10 μM, 24 h", "value": 2.5, "unit": "folds"}, {"measurement": "levels of LC3-II", "setting": "LC3-II; [4]", "value": 1.5, "unit": "folds"}, {"measurement": "percentage of apoptosis", "setting": "A549 cells [1]; [3]", "value": 52.5, "unit": "%"}, {"measurement": "percentage of apoptosis", "setting": "A549 cells [1]; [4]", "value": 34.2, "unit": "%"}, {"measurement": "percentage of autophagy", "setting": "A549 cells [2]; [3]", "value": 42.5, "unit": "%"}, {"measurement": "increase in cells undergoing autophagy", "setting": "A549 cells [2]; A549, 10 μM, 24 h", "value": 4.5, "unit": "folds"}, {"measurement": "percentage of autophagy", "setting": "A549 cells [2]; [4]", "value": 11.8, "unit": "%"}, {"measurement": "caspase-3 activity", "setting": "caspase-3", "value": "high degree of caspase-3 activity compared to oxaliplatin"}]}
